The term IC50 denotes the concentration needed to halve the response being measured.

This passage reports IC50 results from patent US7807704B2, “Bicyclic, nitrogen-containing compounds modulating CXCR4 and/or CCXCKR2” (Chemocentryx, Inc., priority 2006, dated 2010).

The structures appear in SMILES notation.

One assay has as its target T1, CXCR4 (Homo sapiens, UniProt P61073).
T1 construct: all endogenously expressing CXCR4; endogenous in cells; host or cells: CEM-Nkr, CCRF-CEM, Jurkat, Molt-4; IL-2 stimulated human lymphocytes
In words: chemotaxis assay or 125I SDF-1α binding assay for CXCR4. The conditions noted are these: first or only activity listed, read-out: CXCR4 activity (IC50 class). How it is done:
CEM-Nkr, CCRF-CEM (ATCC #CCL-119), Jurkat (ATCC #TIB-152), Molt-4 (ATCC# CRL-1582), cell lines, all endogenously expressing CXCR4, were used in compound screening and subsequent assays. These cell lines were cultured as a suspension in RPMI-1640 medium supplemented with 2 mM L-glutamine, 1.5 g/L sodium bicarbonate, 4.5 g/L glucose, 10 mM HEPES, 1 mM sodium pyruvate, and 10% FBS. Cells were grown under 5% CO2/95% air, 100% humidity at 37° C. and subcultured twice weekly at 1:6 (cells were cultured at a density range of 1×10^5 to 2×10^6 cells/mL) and harvested at 1×10^6 cells/mL. • b) Isolated Human IL-2 Stimulated Lymphocytes
Cells were centrifuged and resuspended in assay buffer (20 mM HEPES pH 7.1, 140 mM NaCl, 1 mM CaCl2, 5 mM MgCl2, and with 0.2% bovine serum albumin) to a concentration of 4×10^6 cells/mL for cell lines. Binding assays were set up as follows. […] Then 0.1 mL of ^125I labeled SDF-1α (obtained from Perkin Elmer Life Sciences, Boston, Mass.) diluted in assay buffer to a final concentration of ˜50 pM, yielding ˜30,000 cpm per well, was added, the plates sealed and incubated for approximately 3 hours at 4° C. on a shaker platform. Reactions were aspirated onto GF/B glass filters pre-soaked in 0.3% polyethyleneimine (PEI) solution, on a vacuum cell harvester (Packard Instruments; Meriden, Conn.). Scintillation fluid (40 μl; Microscint 20, Packard Instruments) was added to each well, the plates were sealed and radioactivity measured in a Topcount scintillation counter (Packard Instruments). Control wells containing either diluent only (for total counts) or excess SDF1 a (1 μg/mL, for non-specific binding) were used to calculate the percent of total inhibition for compound. The computer program Prism from GraphPad, Inc. (San Diego, Calif.) was used to calculate IC50 values. IC50 values are those concentrations required to reduce the binding of radiolabeled SDF-1α to the receptor by 50%. (For further descriptions of ligand binding and other functional assays, see Dairaghi, et al., J. Biol. Chem. 274:21569-21574 (1999), Penfold, et al., Proc. Natl. Acad. Sci. USA. 96:9839-9844 (1999), and Dairaghi, et al., J. Biol. Chem. 272:28206-28209 (1997)).
Chemotaxis assays were performed using 5 μm pore polycarbonate, polyvinylpyrrolidone-coated filters in 96-well chemotaxis chambers (Neuroprobe; Gaithersburg, Md.) using chemotaxis buffer (Hank's balanced salt solution (HBSS) and 1% FBS). CXCR4 ligand (i.e., SDF1a, R&D Systems; Minneapolis, Minn.) are use to evaluate compound mediated inhibition of CXCR4 mediated migration. Other chemokines (i.e., TECK; R&D Systems; Minneapolis, Minn.) are used as specificity controls. The lower chamber was loaded with 29 μl of chemokine (i.e., 0.1 nM SDF1a); the top chamber contained 50,000 Jurkat cells or IL-2 lymphocytes in 20 μl. The chambers were incubated 2 hours at 37° C., and the number of cells in the lower chamber quantified either by direct cell counts in five high powered fields per well or by the CyQuant assay (Molecular Probes), a fluorescent dye method that measures nucleic acid content and microscopic observation.
To evaluate small organic molecules that prevent the CXCR4 from binding ligand, an assay was employed that detected radioactive ligand (i.e, SDF-1) binding to cells expressing CXCR4 on the cell surface (for example, CEM-Nkr cells). For compounds that inhibited binding, whether competitive or not, fewer radioactive counts are observed when compared to uninhibited controls.
Equal numbers of cells were added to each well in the plate. The cells were then incubated with radiolabeled […]. Unbound ligand was removed by washing the cells, and bound ligand was determined by quantifying radioactive counts. Cells that were incubated without any organic compound gave total counts; non-specific binding was determined by incubating the cells with unlabeled ligand and labeled ligand. Percent inhibition was determined by the equation: […]

The target in another assay is T2, CCXCKR2 (CXCR7) (Homo sapiens, UniProt P25106).
T2 construct: expressed in transfected cells; host or cells: MDA-MB-435S transfected with pcDNA3.1(+)-hRDC1, and/or MCF-7 (endogenous receptor)
T2 sequence (P25106 whole entry): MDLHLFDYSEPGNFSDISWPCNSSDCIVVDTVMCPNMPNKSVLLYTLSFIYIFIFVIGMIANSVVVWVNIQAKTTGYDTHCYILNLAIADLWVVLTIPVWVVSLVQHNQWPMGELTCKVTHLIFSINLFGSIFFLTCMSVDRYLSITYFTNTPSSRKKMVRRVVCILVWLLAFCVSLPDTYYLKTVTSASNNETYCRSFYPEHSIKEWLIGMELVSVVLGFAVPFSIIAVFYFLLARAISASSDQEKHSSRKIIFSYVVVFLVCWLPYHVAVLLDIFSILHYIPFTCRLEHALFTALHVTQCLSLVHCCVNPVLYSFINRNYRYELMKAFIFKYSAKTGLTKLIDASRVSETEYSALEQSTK
Put plainly: displacement of 125I SDF-1 from CCXCKR2 (CXCR7) on MCF-7 and/or MDA-MB-435S cells. Format: binding. The conditions noted are these: second activity listed in the cell; read-out: CXCR7 activity (IC50 class). How it is done: The ability of the compounds to displace the labeled chemokine from the CCXCKR2 receptor sites at multiple concentrations was then determined with the screening process.
Reagents and Cells. ^125I-labeled SDF-1 was purchased from Perkin-Elmer Life Sciences, Inc. (Boston, Mass.). The MCF-7 (adenocarcinoma; mammary gland) cell line was obtained from the American Type Culture Collection (Manassas, Va.) or and was cultured in DMEM (Mediatech, Herndon, Va.) supplemented with 10% fetal bovine serum (FBS) (HyClone Logan, Utah) and bovine insulin (0.01 mg/mL) (Sigma, St. Louis, Mo.) at 37° C. in a humidified incubator at a 5% CO2/air mixture. CCXCKR2 transfected MDA-MB-435S were produced as described below. MDA-MB-435S human breast cancer line, was purchased from ATCC, and cultured in DMEM/10% FBS medium. The complete coding sequence of the gene encoding CCXCKR2 (a.k.a. CXCR7, hRDC1), was isolated from MCF-7 cells using μMACs mRNA isolation kit (Miltenyi Biotec, Auburn, Calif.). DNA contamination was removed by DNase digestion via RNeasy columns (Qiagen, Inc., Valencia, Calif.) and cDNA was generated using GeneAmp RNA PCR Core Kit (Applied Biosystems, Foster City, Calif.). PCR of cDNA samples was performed using Taq PCR Master Mix kit (Qiagen, Inc.) and hRDC1 primers harboring 5′ and 3′ NotI sites (hRDC1F 5′ […]-3′ (SEQ ID NO:11, hRDC1R 5′-[…]-3′) Not I digested PCR product was ligated into Not I digested pcDNA3.1 (+)(Invitrogen, Carlsbad, Calif.) and screened for orientation and sequence confirmed. Plasmid DNA was then isolated from overnight bacterial cultures by Maxiprep (Qiagen, Inc.). Plasmid DNA (10 μg) was added to MDA-MB-435s cells and cells were electroporated (0.22 kV, 960 uF) via Gene Pulser (Biorad laboratories, Hercules, Calif.). 48 hr post-electroporation, cells were transferred to selection medium (1000 ug/ml G418).
Binding Analysis. Target compounds were tested to determine their ability to bind with CCXCKR2 sites on MCF-7 and/or MDA-MB-435S cells. Efficiency-maximized radioligand binding using filtration protocols as described in Dairaghi D J, et al., HHV8-encoded vMIP-I selectively engages chemokine receptor CCR5. Agonist and antagonist profiles of viral chemokines., J. Biol. Chem. 1999 Jul. 30; 274(31): 21569-74 and Gosling J, et al., Cutting edge: identification of a novel chemokine receptor that binds dendritic cell-and T cell-active chemokines including ELC, SLC, and TECK., J. Immunol. 2000 Mar. 15; 164(6):2851-6 was used.
In these assays, MCF-7 and/or MDA-MB-435S cells were interrogated with the target compounds and the ability of these compounds to displace ^125I radiolabeled SDF-1 was assessed using the protocol described in Dairaghi and Gosling. The target compounds were added to the plate to the indicated concentration and were then incubated with cells followed by the addition of radiolabeled chemokine (^125I SDF-1) for 3 hr at 4° C. in the following binding medium (25 mM HEPES, 140 mM NaCl, 1 mM CaCl2, 5 mM MgCl2 and 0.2% bovine serum albumin, adjusted to pH 7.1). All assays were then incubated for 3 hrs at 4° C. with gentle agitation. Following incubation in all binding assays, reactions were aspirated onto PEI-treated GF/B glass filters (Packard) using a cell harvester (Packard) and washed twice (25 mM HEPES, 500 mM NaCl, 1 mM CaCl2, 5 mM MgCl2, adjusted to pH 7.1). Scintillant (MicroScint 10, Packard) was added to the wells, and the filters were counted in a Packard Topcount scintillation counter. Data were analyzed and plotted using Prism (GraphPad Prism version 3.0a for Macintosh, GraphPad Software, www.graphpad.com).
For orientation: Loss of bound radioactivity is the signal in a displacement assay; it reports binding, not function.

T1 sequence (P61073 whole entry): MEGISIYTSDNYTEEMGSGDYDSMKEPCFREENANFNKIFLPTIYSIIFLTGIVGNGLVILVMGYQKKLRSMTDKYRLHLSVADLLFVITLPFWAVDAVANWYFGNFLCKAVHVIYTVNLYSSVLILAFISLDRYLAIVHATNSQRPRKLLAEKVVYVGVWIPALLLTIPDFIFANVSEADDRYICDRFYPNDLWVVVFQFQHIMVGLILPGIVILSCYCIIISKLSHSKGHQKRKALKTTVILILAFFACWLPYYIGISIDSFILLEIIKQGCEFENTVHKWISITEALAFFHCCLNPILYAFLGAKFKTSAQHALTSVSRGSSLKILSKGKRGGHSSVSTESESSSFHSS

Regarding `CN(CCNC(=O)Cn1ccc2ccc(-c3cccc(C#N)c3)cc21)C1CCCCC1` [No 28], the IC50 at CXCR4 and at CCXCKR2 (CXCR7) was 1000 to 10000 nM in each case.
On to `CCCCc1ccc(-c2ccc3ccn(CC(=O)NCCN(C)C4CCCCC4)c3c2)cc1` [No 31], for which the IC50 on CXCR4 is less than 1000 nM; on CCXCKR2 (CXCR7) it was 1000 to 10000 nM.
With `Cc1cc(-c2ccc3ccn(CC(=O)NCCN(C)C4CCCCC4)c3c2)ccc1F` [No 33], the 50% inhibitory concentration (IC50) at CXCR4 and at CCXCKR2 (CXCR7) was less than 1000 nM in each case.
In the case of `CN(CCNC(=O)Cn1ccc2ccc(-c3ccc(F)cc3)cc21)C1CCCCC1` [No 23], the IC50 at CXCR4 and at CCXCKR2 (CXCR7) was less than 1000 nM in each case.
In the case of `Cc1cc(C)cc(-c2ccc3ccn(CC(=O)NCCN(C)C4CCCCC4)c3c2)c1` [No 32], the IC50 was less than 1000 nM on CXCR4 and 1000 to 10000 nM on CCXCKR2 (CXCR7).
With `Cc1ccc(-c2ccc3ccn(CC(=O)NCCN(C)C4CCCCC4)c3c2)cc1` [No 24], the figures for the IC50 at CXCR4 and at CCXCKR2 (CXCR7) were less than 1000 nM and 1000 to 10000 nM, respectively.
In the case of `CN(CCNC(=O)Cn1ccc2ccc(-c3ccc4c(ccn4C)c3)cc21)C1CCCCC1` [No 35], the IC50 on CXCR4 was less than 1000 nM; on CCXCKR2 (CXCR7) it was 1000 to 10000 nM.
The like results for `COc1ccc(-c2ccc3ccn(CC(=O)NCCN(C)C4CCCCC4)c3c2)cc1` [No 26] were, in that order, less than 1000 nM and 1000 to 10000 nM.
In the case of `CN(CCNC(=O)Cn1ccc2ccc(-c3ccc(Cl)c(Cl)c3)cc21)C1CCCCC1` [No 27], the IC50 on CXCR4 and at CCXCKR2 (CXCR7) was less than 1000 nM in each case.
